Results taken from patent US20130012432A1, “Peptides for Treatment of Obesity” (Novo Nordisk A/S, priority 2010, published 2013).
Converted amounts (≈) assume the structure as drawn. Positions of bridges follow the written chain, without caps; N, C: chain ends. Non-standard residues stand in square brackets, D forms with d. Residues, ends and D or L forms follow the SMILES beside them. Groups on a side chain read outwards from the residue. *: point of attachment. Palmitoyl(16-(5-tetrazolyl)) = O=C(CCCCCCCCCCCCCCCc1nnn[nH]1)*; Lys(CH2CO2H)2 = N[C@@H](CCCCN(CC(=O)O)CC(=O)O)C(=O)O; C17 diacid = O=C(O)CCCCCCCCCCCCCCCC(=O)*; Hyp = O=C(O)[C@@H]1C[C@@H](O)CN1; Orn = NCCC[C@H](N)C(=O)O; Dab = NCC[C@H](N)C(=O)O; Dap = NC[C@H](N)C(=O)O; AEEA = NCCOCCOCC(=O)O

Legend:
physchem = experiment: physchem
Method: From a stock solution in vehicle, either H2O or 10 mM phosphate, containing 1 mg (as weighed) compound per ml, 8-11 aliquots are withdrawn and pH-adjusted individually with HCl/NaOH, to cover the whole pH range.

human MC4 receptor = human MC4 receptor (Homo sapiens, UniProt P32245); experiment: biochemical
Method: Assay (V)—Melanocortin Receptor 4 (MC4) Binding Assay
In Vitro ^125NDP-α-MSH Binding to Recombinant BHK Cells Expressing Human MC4 Receptor (Filtration Assay).
The assay was performed in 5 ml minisorb vials (Sarstedt No. 55.526) or in 96-well filter-plates (Millipore MADVN 6550), and using BHK cells expressing the human MC4 receptor using BHK cells stably expressing the human MC4 receptor. The membranes were prepared from frozen or fresh cells that were homogenized in 20 mM HEPES pH 7.1, 5 mM MgCl2 and 1 mg/ml bacitracin and centrifuged at 15000 rpm at 4° C., 10 min in a Sorvall RC 5B plus, SS-34 rotor. The supernatant was discarded, and the pellets were re-suspended in buffer, homogenized and centrifuged two more times. The final pellets were resuspended in the buffer mentioned above, and the protein concentration was measured and adjusted with buffer to 14 to 17 mg/ml and the membrane preparation were kept at −80° C. until assay. The assay was run directly on a dilution of this cell membrane suspension, without any further preparation. The BHK cell membranes are kept at −80° C. until assay, and the assay is run directly on a dilution of this cell membrane suspension, without further preparation. The suspension is diluted to give maximally 10% specific binding, i.e. to approx. 50-100 fold dilution. The assay was performed in a total volume of 200 μl: 50 μl of cell suspension, 50 μl of ^125NDP-α-MSH (≈79 pM in final concentration), 50 μl of test compound and 50 μl binding buffer (pH 7) mixed and incubated for 2 h at 25° C. [binding buffer: 25 mM HEPES, pH 7.0, 1 mM CaCl2, 1 mM MgSO4, 1 mM EGTA, 0.02% Bacitracin, 0.005% Tween™ 20 and 0.1% HSA or, alternatively, 0.1% ovalbumin (Sigma; catalogue No. A-5503)]. Test compounds were dissolved in DMSO and diluted in binding buffer. Radiolabelled ligand and membranes were diluted in binding buffer. The incubation was stopped by dilution with 2×100 μl ice-cold 0.9% NaCl. The radioactivity retained on the filters was counted using a Cobra II auto gamma counter.
The data were analysed by non-linear regression analysis of binding curves, using the Windows™ program GraphPad™ Prism (GraphPad Software, USA).

MC1 receptor = MC1 receptor (Homo sapiens, UniProt Q01726); experiment: biochemical
How it was run: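 Compounds competed against 125I-NDP-α-MSH (22 pM final) for binding to stably MC1-expressing BHK cell membranes, 30 °C for 90 min in HEPES pH 7.4 buffer with 0.1% HSA or ovalbumin. Bound ligand collected by filtration and counted; binding curves analysed by non-linear regression.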

human GLP-1 receptor = target: T1, human GLP-1 receptor (Homo sapiens, UniProt P43220); experiment: Assay (XI) GLP-1 activity assay, stimulation of cAMP formation; assay type: biochemical; settings: membranes of BHK467-12A cells expressing human GLP-1 receptor
T1 construct: expressed in transfected cells; purified plasma membranes
Source text: The capture of cAMP is achieved by using a specific antibody conjugated to acceptor beads.

human MC4 receptor, sequence (P32245 whole entry): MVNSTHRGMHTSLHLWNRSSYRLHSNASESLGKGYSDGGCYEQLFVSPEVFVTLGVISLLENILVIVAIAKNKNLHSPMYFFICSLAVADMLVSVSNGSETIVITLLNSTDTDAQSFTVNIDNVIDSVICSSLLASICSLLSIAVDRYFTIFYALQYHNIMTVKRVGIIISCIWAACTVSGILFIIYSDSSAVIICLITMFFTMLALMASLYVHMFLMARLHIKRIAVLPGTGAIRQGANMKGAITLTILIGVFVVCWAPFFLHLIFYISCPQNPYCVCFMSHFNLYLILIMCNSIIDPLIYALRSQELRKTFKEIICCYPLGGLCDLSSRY
MC1 receptor, sequence (Q01726 whole entry): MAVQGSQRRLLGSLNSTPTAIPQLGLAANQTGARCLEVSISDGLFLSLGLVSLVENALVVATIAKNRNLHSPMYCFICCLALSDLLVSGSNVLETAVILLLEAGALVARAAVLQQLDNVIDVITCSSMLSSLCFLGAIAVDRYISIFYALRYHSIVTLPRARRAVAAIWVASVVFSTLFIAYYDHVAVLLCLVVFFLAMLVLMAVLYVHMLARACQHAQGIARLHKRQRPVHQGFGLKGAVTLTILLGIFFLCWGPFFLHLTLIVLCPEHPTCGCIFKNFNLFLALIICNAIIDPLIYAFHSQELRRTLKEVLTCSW
T1 sequence (P43220 24-463): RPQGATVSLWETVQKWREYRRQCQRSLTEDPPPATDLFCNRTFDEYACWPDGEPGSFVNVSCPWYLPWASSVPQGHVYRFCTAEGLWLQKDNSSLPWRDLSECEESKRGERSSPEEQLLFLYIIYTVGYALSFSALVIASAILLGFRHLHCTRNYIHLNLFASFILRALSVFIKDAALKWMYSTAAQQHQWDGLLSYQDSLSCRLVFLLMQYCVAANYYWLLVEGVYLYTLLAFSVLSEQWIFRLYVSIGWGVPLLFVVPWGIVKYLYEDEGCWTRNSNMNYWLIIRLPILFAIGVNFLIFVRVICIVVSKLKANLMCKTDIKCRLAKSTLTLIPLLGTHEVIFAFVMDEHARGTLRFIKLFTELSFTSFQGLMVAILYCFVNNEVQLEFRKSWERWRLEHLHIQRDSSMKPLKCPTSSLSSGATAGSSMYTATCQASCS

Q: What does the source list for CC(=O)N[C@H]1CCNC(=O)CC[C@@H](C(=O)N2CCC[C@H]2C(=O)N2CCC[C@H]2C(=O)N[C@@H](CCCNC(=N)N)C(=O)N[C@@H](CC(=O)O)C(=O)N[C@@H](CCCCN(CC(=O)O)CC(=O)O)C(=O)N[C@@H](CCCCNC(=O)COCCOCCNC(=O)CCCCCCCCCCCCCCCc2nnn[nH]2)C(N)=O)NC(=O)[C@H](Cc2c[nH]c3ccccc23)NC(=O)[C@H](CCCNC(=N)N)NC(=O)[C@@H](Cc2ccccc2)NC(=O)[C@H](Cc2c[nH]cn2)NC1=O [Example 23, Ac-c[Dab-His-D-Phe-Arg-Trp-Glu]-Pro-Pro-Arg-Asp-Lys(biscarboxymethyl)-Lys[(2-{2-[16-(tetrazol-5-yl)hexadecanoylamino]ethoxy}ethoxy)acetyl]-NH2] (Ac-[Dab]H[dF]RWEPPRD[Lys(CH2CO2H)2]K([AEEA-Palmitoyl(16-(5-tetrazolyl))])-NH2; lactam 1-6)?
A: solubility (physchem; pH 4.7, Solubility Conc.): 73 µM (≈ 160 µg/mL); solubility (physchem; pH 6.1, Solubility Conc.): 34 µM (≈ 74.3 µg/mL); solubility (physchem; pH 6.6, Solubility Conc.): 38 µM (≈ 83.1 µg/mL); solubility (physchem; pH 6.9, Solubility Conc.): 45 µM (≈ 98.4 µg/mL); solubility (physchem; pH 7.2, Solubility Conc.): 76 µM (≈ 166 µg/mL); solubility (physchem; pH 7.4, Solubility Conc.): 145 µM (≈ 317 µg/mL); solubility (physchem; pH 7.6, Solubility Conc.): 229 µM (≈ 501 µg/mL); solubility (physchem; pH 7.7, Solubility Conc.): 295 µM (≈ 645 µg/mL); solubility (physchem; pH 7.9, Solubility Conc.): 300 µM (≈ 656 µg/mL); Ki (human MC4 receptor): 0.107 µM; Ki (MC1 receptor): > 10 µM

Q: Which solubility (physchem; pH 6.6, Solubility Conc.) does the source give for CC(=O)N[C@H]1CCC(=O)NC[C@@H](C(=O)N2C[C@H](O)C[C@H]2C(=O)N2C[C@H](O)C[C@H]2C(=O)N[C@@H](CCCNC(=N)N)C(=O)N[C@@H](CC(=O)O)C(=O)N[C@@H](CCCCN(CC(=O)O)CC(=O)O)C(=O)N[C@@H](CCCCNC(=O)COCCOCCNC(=O)CCCCCCCCCCCCCCCc2nnn[nH]2)C(N)=O)NC(=O)[C@H](Cc2c[nH]c3ccccc23)NC(=O)[C@H](CCCNC(=N)N)NC(=O)[C@@H](Cc2ccccc2)NC(=O)[C@H](Cc2c[nH]cn2)NC1=O [Example 31, Ac-c[Glu-His-D-Phe-Arg-Trp-Dap]-Hyp-Hyp-Arg-Asp-Lys(biscarboxymethyl)-Lys[(2-{2-[16-(tetrazol-5-yl)hexadecanoylamino]ethoxy}ethoxy)acetyl]-NH2] (Ac-EH[dF]RW[Dap][Hyp][Hyp]RD[Lys(CH2CO2H)2]K([AEEA-Palmitoyl(16-(5-tetrazolyl))])-NH2; lactam 1-6) here?
A: 36 µM (≈ 79.4 µg/mL)

Q: And the solubility (physchem; pH 6.9, Solubility Conc.)?
A: 61 µM (≈ 134 µg/mL)

Q: What about the solubility (physchem; pH 7.3, Solubility Conc.) of the same compound?
A: 96 µM (≈ 212 µg/mL)

Q: And the solubility (physchem; pH 7.4, Solubility Conc.)?
A: 228 µM (≈ 503 µg/mL)

Q: What about the solubility (physchem; pH 7.5, Solubility Conc.) of the same compound?
A: 440 µM (≈ 970 µg/mL)

Q: What about the solubility (physchem; pH 7.7, Solubility Conc.) of the same compound?
A: 495 µM (≈ 1090 µg/mL)

Q: What about the solubility (physchem; pH 7.9, Solubility Conc.) of the same compound?
A: 529 µM (≈ 1170 µg/mL)

Q: And the solubility (physchem; pH 8.1, Solubility Conc.)?
A: 472 µM (≈ 1040 µg/mL)

Q: And the Ki (human MC4 receptor)?
A: 0.017 µM

Q: What about the Ki (MC1 receptor) of the same compound?
A: > 10 µM

Q: What does the source list for CC(=O)N[C@H]1CCCNC(=O)CC[C@@H](C(=O)N2CCC[C@H]2C(=O)N[C@@H](CO)C(=O)N[C@@H](CO)C(=O)N[C@@H](CO)C(=O)N[C@@H](CCC(=O)O)C(=O)N[C@@H](CCC(=O)O)C(=O)N[C@@H](CO)C(=O)N[C@@H](CO)C(=O)N[C@@H](CCCCNC(=O)COCCOCCNC(=O)CCCCCCCCCCCCCCCC(=O)O)C(N)=O)NC(=O)[C@H](Cc2c[nH]c3ccccc23)NC(=O)[C@H](CCCNC(=N)N)NC(=O)[C@@H](Cc2ccccc2)NC(=O)[C@H](Cc2c[nH]cn2)NC1=O [Example 39] (Ac-[Orn]H[dF]RWEPSSSEESSK([AEEA-C17 diacid])-NH2; lactam 1-6)?
A: solubility (physchem; pH 6.1, Solubility Conc.): 272 µM (≈ 614 µg/mL); solubility (physchem; pH 6.6, Solubility Conc.): 403 µM (≈ 910 µg/mL); solubility (physchem; pH 6.9, Solubility Conc.): 397 µM (≈ 896 µg/mL); solubility (physchem; pH 7.1, Solubility Conc.): 419 µM (≈ 946 µg/mL); solubility (physchem; pH 7.4, Solubility Conc.): 448 µM (≈ 1010 µg/mL); solubility (physchem; pH 7.7, Solubility Conc.): 426 µM (≈ 962 µg/mL); solubility (physchem; pH 8, Solubility Conc.): 397 µM (≈ 896 µg/mL); solubility (physchem; pH 8.3, Solubility Conc.): 445 µM (≈ 1000 µg/mL); Ki (human MC4 receptor): 0.025 µM; Ki (MC1 receptor): > 10 µM

Q: Which results are given for CC(=O)N[C@H]1CCCCNC(=O)C[C@@H](C(=O)N2CCC[C@H]2C(=O)N2CCC[C@H]2C(=O)N[C@@H](Cc2c[nH]cn2)C(=O)N[C@@H](CCC(=O)O)C(=O)N[C@@H](CCCCN(CC(=O)O)CC(=O)O)C(=O)N[C@@H](CCCCNC(=O)COCCOCCNC(=O)CCCCCCCCCCCCCCCC(=O)O)C(N)=O)NC(=O)[C@H](Cc2c[nH]c3ccccc23)NC(=O)[C@H](CCCNC(=N)N)NC(=O)[C@@H](Cc2ccccc2)NC(=O)[C@H](Cc2c[nH]cn2)NC1=O [Example 44, Ac-c[Lys-His-D-Phe-Arg-Trp-Asp]-Pro-Pro-His-Glu-Lys(biscarboxymethyl)-Lys({2-[2-(16-carboxyhexadecanoylamino)ethoxy]ethoxy}acetyl)-NH2] (Ac-KH[dF]RWDPPHE[Lys(CH2CO2H)2]K([AEEA-C17 diacid])-NH2; lactam 1-6)?
A: solubility (physchem; pH 6.5, Solubility Conc.): 227 µM (≈ 493 µg/mL); solubility (physchem; pH 6.7, Solubility Conc.): 364 µM (≈ 790 µg/mL); solubility (physchem; pH 6.8, Solubility Conc.): 407 µM (≈ 884 µg/mL); solubility (physchem; pH 7, Solubility Conc.): 430 µM (≈ 934 µg/mL); solubility (physchem; pH 7.3, Solubility Conc.): 412 µM (≈ 895 µg/mL); solubility (physchem; pH 7.6, Solubility Conc.): 407 µM (≈ 884 µg/mL); solubility (physchem; pH 7.8, Solubility Conc.): 429 µM (≈ 932 µg/mL); solubility (physchem; pH 8, Solubility Conc.): 408 µM (≈ 886 µg/mL); solubility (physchem; pH 8.2, Solubility Conc.): 430 µM (≈ 934 µg/mL); Ki (human MC4 receptor): 0.017 µM; Ki (MC1 receptor): > 10 µM

Q: With CC(=O)N[C@H]1CCCCNC(=O)C[C@@H](C(=O)N2CCC[C@H]2C(=O)N[C@@H](CO)C(=O)N[C@@H](Cc2c[nH]cn2)C(=O)N[C@@H](CCC(=O)O)C(=O)N[C@@H](CCCCN(CC(=O)O)CC(=O)O)C(=O)N[C@@H](CCCCNC(=O)COCCOCCNC(=O)CCCCCCCCCCCCCCCC(=O)O)C(N)=O)NC(=O)[C@H](Cc2c[nH]c3ccccc23)NC(=O)[C@H](CCCNC(=N)N)NC(=O)[C@@H](Cc2ccccc2)NC(=O)[C@H](Cc2c[nH]cn2)NC1=O [Example 49, Ac-c[Lys-His-D-Phe-Arg-Trp-Asp]-Pro-Ser-His-Glu-Lys(biscarboxymethyl)-Lys({2-[2-(16-carboxyhexadecanoylamino)ethoxy]ethoxy}acetyl)-NH2] (Ac-KH[dF]RWDPSHE[Lys(CH2CO2H)2]K([AEEA-C17 diacid])-NH2; lactam 1-6) as the compound, how does the solubility (physchem; pH 6.5, Solubility Conc.) read?
A: 248 µM (≈ 536 µg/mL)

Q: And the solubility (physchem; pH 6.6, Solubility Conc.)?
A: 423 µM (≈ 914 µg/mL)

Q: And the solubility (physchem; pH 6.8, Solubility Conc.)?
A: 427 µM (≈ 923 µg/mL)

Q: And the solubility (physchem; pH 7, Solubility Conc.)?
A: 462 µM (≈ 999 µg/mL)

Q: What about the solubility (physchem; pH 7.3, Solubility Conc.) of the same compound?
A: 460 µM (≈ 994 µg/mL)

Q: And the solubility (physchem; pH 7.7, Solubility Conc.)?
A: 439 µM (≈ 949 µg/mL)

Q: And the solubility (physchem; pH 7.8, Solubility Conc.)?
A: 456 µM (≈ 986 µg/mL)

Q: What about the solubility (physchem; pH 8, Solubility Conc.) of the same compound?
A: 410 µM (≈ 886 µg/mL)

Q: What about the solubility (physchem; pH 8.2, Solubility Conc.) of the same compound?
A: 446 µM (≈ 964 µg/mL)

Q: And the Ki (human MC4 receptor)?
A: 0.025 µM

Q: And the Ki (MC1 receptor)?
A: > 10 µM

Q: For exendin-4(7-45) [SEQ ID NO: 4], which “EC50 relative to that of compound G1” value (human GLP-1 receptor) is on record?
A: about 0.3 times
